In ChEMBL document CHEMBL1147622, “Design and synthesis of indolo[2,3-a]quinolizin-7-one inhibitors of the ZipA-FtsZ interaction” (2004):
One block for each compound: values may come before it.

What was measured:
[1] = Antibacterial activity against Gram-positive, Gram-negative bacteria and Escherichia coli; type: functional
Escherichia coli = test: Inhibition of ZipA FtsZ binding at 1 mM using an optical biosensor system

Structure (SMILES): O=C(NCCCn1c2c(c3ccccc31)C(=O)CN1CCCCC21)c1ccco1 (stereo not given)
MIC [1]: ≥ 200 µM | inhibition (Escherichia coli): 38%

Structure (SMILES): O=C1CN2CCCCC2c2c1c1ccccc1n2CCCN1CC(Br)C1=O (stereo not given)
MIC [1]: ≥ 200 µM | inhibition (Escherichia coli): 38%

Structure (SMILES): Cc1ccc(CNC(=O)CCn2c3c(c4ccccc42)C(=O)CN2CCCCC32)o1 (stereo not given)
MIC [1]: ≥ 200 µM | inhibition (Escherichia coli): 32%

Structure (SMILES): N#CCCNC(=O)CCn1c2c(c3ccccc31)C(=O)CN1CCCCC21 (stereo not given)
MIC [1]: ≥ 200 µM | inhibition (Escherichia coli): 22%

Structure (SMILES): O=C1CN2CCCCC2c2c1c1ccccc1n2CCCNS(=O)(=O)c1cc(Cl)sc1Cl (stereo not given)
MIC [1]: ≥ 200 µM | inhibition (Escherichia coli): 12%

Structure (SMILES): NCCCn1c2c(c3ccccc31)C(=O)CN1CCCCC21 (stereo not given)
MIC [1]: ≥ 200 µM | inhibition (Escherichia coli): 47%

Structure (SMILES): O=C(CCCn1c2c(c3ccccc31)C(=O)CN1CCCCC21)NC1CCCC1 (stereo not given)
MIC [1]: ≥ 200 µM | inhibition (Escherichia coli): 24%

Structure (SMILES): CCCCS(=O)(=O)NCCCn1c2c(c3ccccc31)C(=O)CN1CCCCC21 (stereo not given)
MIC [1]: ≥ 200 µM | inhibition (Escherichia coli): 25%

Structure (SMILES): CS(=O)(=O)NCCCn1c2c(c3ccccc31)C(=O)CN1CCCCC21 (stereo not given)
MIC [1]: ≥ 200 µM | inhibition (Escherichia coli): 41%

Structure (SMILES): O=C1CN2CCCCC2c2[nH]c3ccccc3c21 (stereo not given)
MIC [1]: ≥ 200 µM | inhibition (Escherichia coli): 39%

Structure (SMILES): O=C(CCCn1c2c(c3ccccc31)C(=O)CN1CCCCC21)NCC(F)(F)F (stereo not given)
MIC [1]: ≥ 200 µM | inhibition (Escherichia coli): 21%

More lines, now with the values ahead:

MIC [1]: ≥ 200 µM | inhibition (Escherichia coli): 23%
Structure (SMILES): Cc1ccc(CNC(=O)CCCn2c3c(c4ccccc42)C(=O)CN2CCCCC32)o1 (stereo not given)

MIC [1]: ≥ 200 µM | inhibition (Escherichia coli): 39%
Structure (SMILES): N#CCCNC(=O)CCCn1c2c(c3ccccc31)C(=O)CN1CCCCC21 (stereo not given)

MIC [1]: ≥ 200 µM | inhibition (Escherichia coli): 30%
Structure (SMILES): Cc1nnsc1S(=O)(=O)NCCCn1c2c(c3ccccc31)C(=O)CN1CCCCC21 (stereo not given)

MIC [1]: ≥ 200 µM | inhibition (Escherichia coli): 11%
Structure (SMILES): O=C1CN2CCCCC2c2c1c1ccccc1n2CCCNS(=O)(=O)c1ccc(Cl)s1 (stereo not given)

MIC [1]: ≥ 200 µM | inhibition (Escherichia coli): 8%
Structure (SMILES): O=C(NCCCn1c2c(c3ccccc31)C(=O)CN1CCCCC21)c1ccc(Cl)c(Cl)c1 (stereo not given)

MIC [1]: ≥ 200 µM | inhibition (Escherichia coli): 31%
Structure (SMILES): O=C(Cn1c2c(c3ccccc31)C(=O)CN1CCCCC21)NC1CCCC1 (stereo not given)

MIC [1]: ≥ 200 µM | inhibition (Escherichia coli): 46%
Structure (SMILES): CC(C)S(=O)(=O)NCCCn1c2c(c3ccccc31)C(=O)CN1CCCCC21 (stereo not given)

MIC [1]: ≥ 200 µM | inhibition (Escherichia coli): 25%
Structure (SMILES): O=C1CN2CCCCC2c2c1c1ccccc1n2CCCNS(=O)(=O)c1cccs1 (stereo not given)

MIC [1]: ≥ 200 µM | inhibition (Escherichia coli): 33%
Structure (SMILES): O=C(Cc1ccc(F)cc1)NCCCn1c2c(c3ccccc31)C(=O)CN1CCCCC21 (stereo not given)
